Where two headings read alike, the source gives them in different places.
Columns and labels:
MKL-2 cells (VP-MCC) = assay: qHTS cell viability (CellTiter-Glo, 72 h; primary and follow-up small molecule screen); format: cell-based, human
HACAT cells = assay: qHTS cell viability (CellTiter-Glo, 72 h; primary screen), control cell line; format: cell-based, human
HEK293T cells = assay: as above; format: cell-based, human
UISO cells (VN-MCC) = assay: qHTS cell viability (CellTiter-Glo, 72 h; primary and follow-up small molecule screen); format: cell-based, human
WAGA cells (VP-MCC) = assay: as above; format: cell-based, human
MCC13 cells (VN-MCC) = assay: as above; format: cell-based, human
MCC26 cells (VN-MCC) = assay: as above; format: cell-based, human
[1] = tested on: six MCC cell lines and four control cell lines; assay: qHTS cell viability, all 10 cell lines screened; format: cell-based
[2] = tested on: control cell lines (HACAT, HEK293T, CRL-7250, NIH-3T3); assay: qHTS cell viability, control cell lines as a group (mean AUC, Control.avg); format: cell-based
[3] = tested on: VP-MCC cell lines (WAGA, MKL-1, MKL-2); assay: qHTS cell viability, VP-MCC cell lines as a group (mean AUC, VP.MCC.avg); format: cell-based, human
[4] = tested on: VN-MCC cell lines (MCC13, MCC26, UISO); assay: qHTS cell viability, VN-MCC cell lines as a group (mean AUC, VN.MCC.avg); format: cell-based, human
NIH-3T3 cells = assay: qHTS cell viability (CellTiter-Glo, 72 h; primary screen), control cell line; format: cell-based, mouse
[5] = tested on: MCC cell lines (WAGA, MKL-1, MKL-2, MCC13, MCC26, UISO); assay: qHTS cell viability, all six MCC cell lines as a group (mean AUC, MCC.avg); format: cell-based, human
MKL-1 cells (VP-MCC) = assay: qHTS cell viability (CellTiter-Glo, 72 h; primary and follow-up small molecule screen); format: cell-based, human
CRL-7250 cells = assay: qHTS cell viability (CellTiter-Glo, 72 h; primary screen), control cell line; format: cell-based
[6] = NPC library, qHTS dose-response AUC, MKL2
[7] = NPC library, qHTS dose-response AUC, HACAT control
[8] = NPC library, qHTS dose-response AUC, HEK293T control
[9] = NPC library, qHTS dose-response AUC, UISO
[10] = NPC library, qHTS dose-response AUC, WAGA
[11] = NPC library, qHTS dose-response AUC, MCC13
[12] = NPC library, qHTS dose-response AUC, MCC26
[13] = NPC library, therapeutic window: Control avg AUC minus MCC avg AUC
[14] = NPC library, mean AUC of control cell lines
[15] = NPC library, mean AUC of VP-MCC cell lines
[16] = NPC library, therapeutic window: Control avg AUC minus VP-MCC avg AUC
[17] = NPC library, mean AUC of VN-MCC cell lines
[18] = NPC library, therapeutic window: Control avg AUC minus VN-MCC avg AUC
[19] = NPC library, qHTS dose-response AUC, NIH3T3 control
[20] = NPC library, mean AUC of six MCC cell lines
[21] = NPC library, qHTS dose-response AUC, MKL1
[22] = NPC library, qHTS dose-response AUC, CRL7250 control

Row | Compound | MKL2_AUC (MKL-2 cells (VP-MCC); [6]) | HACAT_AUC (HACAT cells; [7]) | HEK293T_AUC (HEK293T cells; [8]) | UISO_AUC (UISO cells (VN-MCC); [9]) | WAGA_AUC (WAGA cells (VP-MCC); [10]) | MCC13_AUC (MCC13 cells (VN-MCC); [11]) | MCC26_AUC (MCC26 cells (VN-MCC); [12]) | Control-MCC [1, 13] | Control_Avg_AUC [2, 14] | VP-MCC_Avg_AUC [3, 15] | Control-VP-MCC [3, 16] | VN-MCC_Avg_AUC [4, 17] | Control-VN-MCC [4, 18] | NIH3T3_AUC (NIH-3T3 cells; [19]) | MCC_Avg_AUC [5, 20] | MKL1_AUC (MKL-1 cells (VP-MCC); [21]) | CRL7250_AUC (CRL-7250 cells; [22]) | also measured
1 | CNCc1ccccc1.Cl [N-Methylbenzylamine hydrochloride] | 343.012 | 476.463 | 408.972 | 548.944 | 372.649 | 438.819 | 480.435 | 42.2399 | 471.352 | 368.825 | 102.527 | 489.399 | -18.0472 | 497.435 | 429.112 | 390.814 | 502.537 | –
2 | CNC(=O)[C@H](CC1=CN=C2C=CCC=C12)NC(=O)[C@@H](CC(=O)NO)CC(C)C [GM-6001] | – | – | – | – | – | – | – | – | – | – | – | – | – | – | – | – | – | MKL2_AUC (MKL-2 cells (VP-MCC)): 291.464; HACAT_AUC (HACAT cells): 458.777; HEK293T_AUC (HEK293T cells): 473.463; UISO_AUC (UISO cells (VN-MCC)): 484.498; WAGA_AUC (WAGA cells (VP-MCC)): 319.008; MCC13_AUC (MCC13 cells (VN-MCC)): 475.165; MCC26_AUC (MCC26 cells (VN-MCC)): 475.207; Control-MCC [1]: 80.8804; Control_Avg_AUC [2]: 469.151; Control-VP-MCC [3]: 170.899; VP-MCC_Avg_AUC [3]: 298.252; Control-VN-MCC [4]: -9.139; VN-MCC_Avg_AUC [4]: 478.29; NIH3T3_AUC (NIH-3T3 cells): 471.496; MCC_Avg_AUC [5]: 388.271; MKL1_AUC (MKL-1 cells (VP-MCC)): 284.283; CRL7250_AUC (CRL-7250 cells): 472.869
3 | CCOC(=O)[C@H](CCc1ccccc1)N[C@@H](C)C(=O)N1CCC[C@H]1C(=O)O [Enalapril] | 179.263 | 446.912 | 487.46 | 518.678 | 302.495 | 506.069 | 507.531 | 89.4069 | 477.153 | 264.734 | 212.42 | 510.759 | -33.606 | 481.677 | 387.746 | 312.443 | 492.563 | –

Source: article PMC11822212, “High-throughput screening identifies Aurora kinase B as a critical therapeutic target for Merkel cell carcinoma” (Nature Communications, 2025)
